Source: US20260176320A1, “MODULATORS OF G-PROTEIN COUPLED RECEPTORS” (priority 2018, published 2026)
Read-outs that look alike come from different tables or passages of the source.

Legend:
GLP-1R [1] = target: T1, GLP-1R (Homo sapiens, UniProt P43220); test: HitHunter cAMP assay (GLP-1R); assay type: cell-based; settings: cAMP; for EC50: EC50 GLP-1R/nM; for Emax: read-out: (Emax) GLP-1R
Procedure, shortened: (§1)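 cAMP, luminescence read: agonist 22-pt 2× dilution in DMSO, duplicate, 30 min RT on 10,000 cells/well in 1×HBSS/10 mM HEPES/625 μM IBMX/0.2% BSA; anti-cAMP reagent 1 h RT dark, then O/N RT dark before read.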

mice [2] = test: Glucose tolerance test (GTT); assay type: in vivo, mouse; settings: 24 h GTT, s.c., percent of vehicle
Procedure, shortened: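 Compounds diluted in PBS from 1 mM DMSO stocks and given subcutaneously 15 min (5-6 h fast), 4 h (16 h overnight fast), 16 h or 24 h before intraperitoneal glucose (2 g/kg). Tail blood glucose read at 10–120 min post-glucose, at least 6 mice per time-point. Glucose AUC over time determined.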

mice [3] = test: Conditioned taste aversion (CTA) in mice; assay type: in vivo, mouse; settings: s.c., 30 nmol/kg, saccharine preference vs vehicle
Experimental: A value of CTA=0.0-0.6 indicates significant aversion to a compound. The conditioned taste aversion assay measures the preference for a dilute saccharin solution that is associated with compound administration.
One week before start of experiment (Day-7), animals were transferred to single house double grommet cages. A 50 ml water bottle was placed, and consistently replaced when refilled in the same grommet to habituate the animal to a “water” side. After 7 days of baseline water consumption, animals began the taste preference procedure. On Day 1, the animals were weighed and deprived of water at […]. On acquisition day (Day 2), mice had access to a single bottle containing 0.15% saccharin solution, on the opposite side to the “water” habituated side and allowed to consume for 3 h, from 6 pm until 9 pm. The saccharine bottles were then removed and weighed to record the 3 h consumption. […] On Day 3, the water was removed and weighed at 6 pm. On Day 4, both saccharine and water bottles were weighed and returned simultaneously to respective grommet at 6 pm. On Day 5, the bottles were removed at 6 pm and weighed. Saccharine consumption was measured as a percent of the total amount of fluid consumed. The reduction of saccharin consumption during the retrieval was used as a measure of CTA strength. Liraglutide and semaglutide were used as positive controls.

GIP-R = target: T2, GIP-R (Homo sapiens, UniProt P48546); test: HitHunter cAMP assay (GIP-R); assay type: cell-based; settings: cAMP; for EC50: EC50 GIP-R/nM; for Emax: read-out: (Emax) GIP-R
T2 sequence (P48546 22-466): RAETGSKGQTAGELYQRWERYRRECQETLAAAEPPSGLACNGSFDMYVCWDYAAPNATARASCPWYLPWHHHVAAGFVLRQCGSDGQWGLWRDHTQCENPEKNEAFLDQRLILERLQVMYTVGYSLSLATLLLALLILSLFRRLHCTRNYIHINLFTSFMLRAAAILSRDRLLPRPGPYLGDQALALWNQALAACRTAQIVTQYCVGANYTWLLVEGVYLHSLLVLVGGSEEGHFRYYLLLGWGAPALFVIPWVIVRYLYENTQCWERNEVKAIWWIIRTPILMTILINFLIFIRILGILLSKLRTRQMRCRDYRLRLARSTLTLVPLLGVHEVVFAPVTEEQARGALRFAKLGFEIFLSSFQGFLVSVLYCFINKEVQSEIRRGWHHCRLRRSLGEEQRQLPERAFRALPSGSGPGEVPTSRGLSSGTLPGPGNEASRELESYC
Procedure, shortened: as §1

GLP-1R [4] = target: T1, GLP-1R; test: PathHunter β-arrestin assay; assay type: cell-based
Procedure, shortened: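 Luminescence read-out of β-arrestin recruitment (enzyme-fragment complementation detection, 3 h at room temperature in the dark) after 90 min agonist stimulation at 37 °C. Agonists tested as 22-point 2× serial dilutions in duplicate, in medium containing 0.2% BSA.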

T1 sequence (P43220 24-463): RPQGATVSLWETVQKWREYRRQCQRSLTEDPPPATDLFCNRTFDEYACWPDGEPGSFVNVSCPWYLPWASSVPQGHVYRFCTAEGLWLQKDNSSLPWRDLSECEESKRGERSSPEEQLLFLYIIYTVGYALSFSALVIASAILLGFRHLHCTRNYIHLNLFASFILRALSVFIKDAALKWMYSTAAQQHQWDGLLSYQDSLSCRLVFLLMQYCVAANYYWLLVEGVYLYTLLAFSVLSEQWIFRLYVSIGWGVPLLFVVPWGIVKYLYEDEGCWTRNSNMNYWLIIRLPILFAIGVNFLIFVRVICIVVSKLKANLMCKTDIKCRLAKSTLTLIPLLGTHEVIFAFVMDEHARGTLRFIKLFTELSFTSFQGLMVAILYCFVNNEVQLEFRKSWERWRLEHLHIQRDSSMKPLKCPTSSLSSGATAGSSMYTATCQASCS

| SMILES | EC50 (GLP-1R [1]; Table 3) | EC50 (GLP-1R [1]; Table 3A) | Emax (GLP-1R [1]; Table 3) | Emax (GLP-1R [1]; Table 3A) | AUC score (mice [2]; dose range 2-5 nmol/kg) | CTA score (mice [3]) | EC50 (GIP-R; Table 3) | EC50 (GIP-R; Table 3A) | Emax (GIP-R; Table 3) | Emax (GIP-R; Table 3A) | EC50 (GLP-1R [4]) | AUC score (mice [2]; dose range 5.1-15 nmol/kg) |
| --- | --- | --- | --- | --- | --- | --- | --- | --- | --- | --- | --- | --- |
| CCCCCCCCCCCCCCCC(=O)N[C@@H](CCC(=O)NCCCC[C@H](NC(=O)[C@H](CO)NC(=O)[C@@H]1CCCN1C(=O)[C@@H]1CCCN1C(=O)[C@@H]1CCCN1C(=O)[C@H](C)NC(=O)CNC(=O)[C@H](CO)NC(=O)[C@H](CO)NC(=O)[C@@H]1CCCN1C(=O)CNC(=O)CNC(=O)[C@H](C)NC(=O)[C@H](CC(C)C)NC(=O)[C@H](CC(C)C)NC(=O)[C@H](Cc1c[nH]c2ccccc12)NC(=O)[C@H](CC(N)=O)NC(=O)[C@@H](NC(=O)[C@H](Cc1ccccc1)NC(=O)[C@H](CCC(=O)O)NC(=O)C(C)(C)NC(=O)[C@H](C)NC(=O)[C@H](C)NC(=O)[C@H](CCC(N)=O)NC(=O)[C@H](CCCCN)NC(=O)[C@H](CC(=O)O)NC(=O)[C@H](CC(C)C)NC(=O)[C@H](Cc1ccc(O)cc1)NC(=O)[C@@H](NC(=O)[C@H](CO)NC(=O)[C@H](Cc1ccc(O)cc1)NC(=O)[C@H](CC(=O)O)NC(=O)[C@H](CO)NC(=O)[C@@H](NC(=O)[C@H](Cc1ccccc1)NC(=O)[C@@H](NC(=O)CNC(=O)[C@H](CCC(=O)O)NC(=O)CSCC(=O)NCCN1C(=O)C[C@H](C)C1=O)[C@@H](C)O)[C@@H](C)O)[C@@H](C)CC)C(C)C)C(N)=O)C(=O)O [Compound 91] | 1 to 10 nM | 1 to 10 nM | 98% | 98% | 3 (AUC score 3 = 51-75%) | 4 (Score 4 = 76-100%) | 1 to 10 nM | 1 to 10 nM | 85% | 85% | > 1000 nM | – |
| CCCCCCCCCCCCCCCC(=O)N[C@@H](CCC(=O)NCCCC[C@H](NC(=O)[C@H](CO)NC(=O)[C@@H]1CCCN1C(=O)[C@@H]1CCCN1C(=O)[C@@H]1CCCN1C(=O)[C@H](C)NC(=O)CNC(=O)[C@H](CO)NC(=O)[C@H](CO)NC(=O)[C@@H]1CCCN1C(=O)CNC(=O)CNC(=O)[C@H](C)NC(=O)[C@H](CC(C)C)NC(=O)[C@H](CC(C)C)NC(=O)[C@H](Cc1c[nH]c2ccccc12)NC(=O)[C@H](CC(N)=O)NC(=O)[C@@H](NC(=O)[C@H](Cc1ccccc1)NC(=O)[C@H](CCC(=O)O)NC(=O)C(C)(C)NC(=O)[C@H](C)NC(=O)[C@H](C)NC(=O)[C@H](CCC(N)=O)NC(=O)[C@H](CCCCN)NC(=O)[C@H](CC(=O)O)NC(=O)[C@H](CC(C)C)NC(=O)[C@H](Cc1ccc(O)cc1)NC(=O)[C@@H](NC(=O)[C@H](CO)NC(=O)[C@H](Cc1ccc(O)cc1)NC(=O)[C@H](CC(=O)O)NC(=O)[C@H](CO)NC(=O)[C@@H](NC(=O)[C@H](Cc1ccccc1)NC(=O)[C@@H](NC(=O)CNC(=O)[C@H](CCC(=O)O)NC(=O)CSCC(=O)NCCN1C(=O)[C@@H](C)[C@@H](C)C1=O)[C@@H](C)O)[C@@H](C)O)[C@@H](C)CC)C(C)C)C(N)=O)C(=O)O [Compound 96] | 1 to 10 nM | 1 to 10 nM | 94% | 94% | – | 4 (Score 4 = 76-100%) | 0.1 to 1 nM | 0.1 to 1 nM | 90% | 90% | > 1000 nM | 4 (AUC score 4 = 76-100%) |
